Laboratory results as given in patent US6953813B1, “2-Aminotetralin derivatives for the therapy of glaucoma” (Chiesi Farmaceutici S.p.A., priority 1999, dated 2005).

Key:
[1] = pKa; assay type: physicochemical
Description: The higher apparent partition coefficient would be more favorable for ophthalmic absorption. However, an acid aqueous solution should be used as a vehicle for eyedrop administration due to the better chemical stability of CHF 1035 in such pH range. The theoretical log Papp of the corresponding not esterified derivative turned out to be −0.9 at pH 7.4.

[2] = Ocular tolerability; assay type: in vivo

For `CNC1CCc2c(ccc(OC(=O)C(C)C)c2OC(=O)C(C)C)C1` (racemic) [CHF 1035, (±)-(R,S)-5,6-diisobutyryloxy-2-methylaminotetralin], the pKa [1] was 9.4 and the “concentration up to which well tolerated (no redness, blinking or other side effects)” value [2] was “up to 5%”.
